Results: ChEMBL document CHEMBL5154761, “Design, synthesis, and evaluation of 9-(pyrimidin-2-yl)-9H-carbazole derivatives disrupting mitochondrial homeostasis in human lung adenocarcinoma” (Eur J Med Chem, 2022)
The source made the active and inactive calls. No cut-off for these calls is given here.

Tests used:
A549 [1] = experiment: Cytotoxicity against human A549 cells assessed as cell growth inhibition incubated for 48 hrs by MTT assay; type: functional, cell-based; conditions: A549, 48 h
A549 [2] = experiment: Induction of cell cycle arrest in human A549 cells assessed as accumulation at G2/M phase at 10 uM incubated for 48 hrs by PI staining based flow cytometry analysis; type: functional
A549 [3] = experiment: Cytotoxicity against human A549 cells assessed as cell growth inhibition at 10 uM incubated for 48 hrs by MTT assay relative to control; type: functional

SMILES	IC50 (A549 [1]) [µM]	Activity (A549 [2])	inhibition at 10 µM (A549 [3]) [%]
O=C(OCc1ccccc1)c1cccc2c3ccccc3n(-c3ncccn3)c12	5.23	Active	–
CCOC(=O)c1cccc2c3ccccc3n(-c3ncccn3)c12	–	–	50
COc1ccc(C(=O)c2cccc3c4ccccc4n(-c4ncccn4)c23)cc1OC	3.1	Active	50
O=C(c1cccc(Cl)c1)c1cccc2c3ccccc3n(-c3ncccn3)c12	7.19	Active	50
Cc1ccc(C(=O)c2cccc3c4ccccc4n(-c4ncccn4)c23)cc1	10	Active	50
O=C(c1ccc(Br)cc1)c1cccc2c3ccccc3n(-c3ncccn3)c12	7.5	Active	50
